{"source": "patent EP0519427A2", "about": "“N-substituted-3-iodopropiolamide, production and use thereof” (priority 1991, dated 1992)", "type_in_all_cases": "cell-based", "key": {"[1]": {"tested_on": "Aspergillus niger van Tieghem IFO 6341", "experiment": "Fungicide activity for wood fungicide (rating of fungi growth on treated wood)", "settings": "beech specimens dipped 3 min in fungicide solution, 4 weeks culture; rating 0 (no growth) to 3; mean of 6 specimens", "description": "(§1) This test was conducted according to Specification No.2 of Japan Wood Preserving Association, enacted in 1979 and titled \"Test methods of fungicide activity for wood fungicide\".\n(§2) • ① Aspergillus niger van Tieghem IFO 6341 = ATCC 6275 • ② Penicillium funiculosum Thom (formerly : Penicillium luteum Zukal) IFO 6345 = ATCC 9644 • ③ Rhizopus javanicus Takeda (formerly : Rhizopus nigricans Ehrenberg S.N. 32) IFO 6354 • ④ Aureobasidium pullulans (de Bary) Arnaud IFO 6353 = IAM (H. Iizuka, F-24) • ⑤ Gliocladium virens Miller, Gidden & Fosteb IFO 6355 = ATCC 9645 (formerly : Trichoderma viride, T.I.)\n(§3) The fungi ① , ② , ③ and ⑤ are classified as fungi imperfecti, and the fungus ④ as blue stain fungus.\n(§4) The Culture medium comprised the potato-sap agar culture medium (specified in the Japan Industrial Standard (JIS) Z 2911- 1960) of 50 ml, put in the conical flask of 100 ml, sterilized by steam at 1.4-1.6 kgf/cm² .G (137.2-156.8 KPa) for 30 minutes.\n(§5) The fungi to be used were inoculated into the culture medium specified in the previous section and were cultured at 26 ± 2 °C under the relative humidity of 70-80 % for two weeks.\n(§6) The potato sap of 50 ml, sterilized, cooled to room temperature and to which dioctyl sodium sulfosuccinate, a wetting agent, was added so as to become 0.005 %, was dropped to the fully breeding fungi layer, and was agitated with a platinum spatula in such a way that the spore was torn off. The resulting liquid filtered by sterilized gauze was the spore suspension.\n(§7) 3-5-1 A Petri dish measured 90-100 mm in diameter and 20 mm in height.\n(§8) 3-5-2 Agar liquid (which has no nutrients) of 2 % sterilized by steam was dropped onto the Petri dish sterilized by dry heat, and then was solidified.\n(§9) 3-5-3 Three mm diameter sterilized glass bars or plastic nets made of polypropylene, etc. were placed to prevent the test specimens from touching with agar directly.\n(§10) 3-6-1 The type of trees for wood specimens was beech. The cross section was of grain face, and the dimension was 20 mm wide 3 mm thick and 50 mm long.\n(§11) 3-6-2 Wood specimens were supplied with nutrients in such a way that they were dipped into the potato-sap (the one in the section 3-2, but agar was not added) for 3 minutes.\n(§12) 3-6-3 Nutrient-supplied wood specimens, after drying at 60 °C, were used for testing immediately. They were temporarily stored at 0 °C, but they were served to tests as soon as possible.\n(§13) The test specimens were of two types, treated and untreated speciments. The treated specimens referred to the one treated with fungicide. The untreated specimens were of two types, the one really untreated and the other treated with solvent only.\n(§14) 3-7-2-1 Nutrients-supplied wood specimens were dried at 60 ± 2 °C, and then their weights (W₀) were measured. Test specimens of 10-20 pieces were piled up in a one liter beaker in such a way that two specimens constant space apart from each other were alternately put on the other two specimens also constant space apart from each other. On the top of the two specimens, a weight was placed. Through the test specimens thus arranged, the fungicide solution was introduced. The level of the fungicide solution was one centimeter above the top specimens. The test specimens were dipped for three minutes after the fungicide solution introduction.\n(§15) After finishing dipping, the test specimens were wiped softly, and then the weights (W₁) were measured immediately. As control experiment, the same procedure as the above was done using solvent without fungicide.\n(§16) 3-7-2-2 The amounts of solution pick-up and fungicide pick-up were calculated with the following equations: The amount of solution absorption: RL = W₁ - W₀ [formula] The amount of fungicide absorption: Rc = RL × fungicide concentration [formula] 3-7-2-3 Wood specimens treated were placed without contacting each other, then were air-dried for two days, and then served as the treated test specimens. […]"}, "[2]": {"tested_on": "Rhizopus javanicus Takeda IFO 6354", "experiment": "Fungicide activity for wood fungicide (rating of fungi growth on treated wood)", "settings": "beech specimens dipped 3 min in fungicide solution, 4 weeks culture; rating 0 (no growth) to 3; mean of 6 specimens", "description": "as §1, §2, §3, §4, §5, §6, §7, §8, §9, §10, §11, §12, §13, §14, §15, §16"}, "[3]": {"tested_on": "Aureobasidium pullulans (de Bary) Arnaud IFO 6353", "experiment": "Fungicide activity for wood fungicide (rating of fungi growth on treated wood)", "settings": "beech specimens dipped 3 min in fungicide solution, 4 weeks culture; rating 0 (no growth) to 3; mean of 6 specimens", "description": "as §1, §2, §3, §4, §5, §6, §7, §8, §9, §10, §11, §12, §13, §14, §15, §16"}, "[4]": {"tested_on": "Gliocladium virens Miller, Gidden & Fosteb IFO 6355", "experiment": "Fungicide activity for wood fungicide (rating of fungi growth on treated wood)", "settings": "beech specimens dipped 3 min in fungicide solution, 4 weeks culture; rating 0 (no growth) to 3; mean of 6 specimens", "description": "as §1, §2, §3, §4, §5, §6, §7, §8, §9, §10, §11, §12, §13, §14, §15, §16"}, "[5]": {"tested_on": "Penicillium funiculosum Thom IFO 6345", "experiment": "Fungicide activity for wood fungicide (rating of fungi growth on treated wood)", "settings": "beech specimens dipped 3 min in fungicide solution, 4 weeks culture; rating 0 (no growth) to 3; mean of 6 specimens", "description": "as §1, §2, §3, §4, §5, §6, §7, §8, §9, §10, §11, §12, §13, §14, §15, §16"}, "[6]": {"tested_on": "Aspergillus Niger (IFO 6341), Penicillium funiculosum (IFO 6345), Rhizopus javanicus (IFO 6354), Aureobasidium pullulans (IFO 6353), Gliocladium virens (IFO …)", "experiment": "Fungicide activity for wood fungicide, sum of average ratings and damage value over the five fungi", "description": "as §1, §2, §3, §4, §5, §6, §7, §8, §9, §10, §11, §12, §13, §14, §15, §16"}, "[7]": {"tested_on": "Coriolus versicolor(L. ex Fr.) Quélet, FFPRI 1030", "experiment": "Preserving activity for wood preservatives (weight loss of treated wood)", "settings": "beech sapwood specimens, 110 ± 10 g/m² preservative applied (0.5% xylene solution per table note), eight weeks at 26 ± 2 °C; lower = higher preserving activity", "description": "(§17) This test was conducted according to Specification No.1 of Japan Wood Preserving Association, enacted in 1979, amended in 1989 and titled \"Test methods of preserving activity for wood preservatives used in the coating, spraying and dipping treatment\".\n(§18) • ① Tyromyces palustris (Ber. et Curt.) Murr., FFPRI 0507 --\"Ouzuratake\" • ② Coriolus versicolor(L. ex Fr.) Quélet, FFPRI 1030 --\"Kawaratake\"\n(§19) These two fungi are classified as wood rot fungi.\n(§20) Culture media comprised culture jars (cylindrical jars of bottom diameter 8-9 cm, opening diameter 6-7 cm and height 15-18 cm), in which quartz sand of 250 g (the size of which corresponds to 20-30 mesh) was put first, and then the solution of 70 ml containing 2.0 % malt extracts and 1.0 % peptone was introduced, over which chips of the beech or other broadleaf tree were spread at about 2 mm thickness, and then sterilized at 120 °C for 30 minutes in the wet heated sterilizer.\n(§21) Fungi were cultured at 26 ± 2 °C with shaking using the culture solution of 2.0 % malt extracts and 1.0 % peptone. After sufficient breeding was obtained, the fungi solution of about 3 ml was spread all over the culture medium, and then the fungi were cultured at 26 ± 2 °C with the relative humidity of over 70 %. After 10-15 days when the fungi layer sufficiently covered the culture medium, the fungi were served for the tests.\n(§22) Wood specimens were the sapwood of intact cedar and beech, the dimension of which was 5 mm thick, 20 mm wide and 40 mm long. The grain face was of 20 mm width and 40 mm length. The side faces were treated with cold-setting epoxy resin.\n(§23) The antimicrobial operation was performed with specifying types of fungi for corresponding type of trees. The combinations were as follows: Cedar----Tyromyces palustris (\"Ouzuratake\") Beech----Coriolus versicolor (\"Kawaratake\")\n(§24) The test specimens were of two types, treated and untreated specimens, respectively.\n(§25) The treated specimens referred to the wood specimens coated by brushing, spraying or dipping with wood preservatives. The amount of applied preservatives was 110 ± 10 g/m².\n(§26) The amount of applied preservatives for each test specimen was calculated by the following equation:\n(§27) The amount of applied preservatives (g/m²)=(W₁-W₂)/A wherein W₁ : weight of the test specimen after absorption(g), W₂ : weight of the test specimen before absorption(g) and A: surface area of test specimen except both butt surfaces (m²)\n(§28) 2-7-1 The test specimens prepared in the previous section were dried at 60 ± 2 °C with a recirculating dryer for 48 hours, and were allowed to stand in a desiccator for about 30 minutes, and then the weight (W₃) was measured to an accuracy of 0.01 g.\n(§29) 2-7-2 Three of each treated and untreated specimens were assembled in the Teflon casing. After sterilizing, the two assemblies were put on their 40 × 5 mm face on the fungi layer in the separate jar. They were kept at 26 ± 2 °C under the relative humidity of over 70 % for eight weeks.\n(§30) 2-7-3 After the eight weeks had elapsed, the test specimens were taken out, and mycelia and other attachments of them were removed neatly. After air-drying for 24 hours, the test specimens were dried at 60 ± 2 °C in a recirculating dryer for 48 hours, and were allowed to stand in a desiccator for about 30 minutes, and then the weight (W₄) was measured to an accuracy of 0.01 g.\n(§31) The test results were presented by the ratio of average weight loss of test specimens due to antimicrobial operation. The standard deviation and coefficient of variation were also determined. The ratio of weight loss for each test specimen was calculated by the following equation, and its average was also determined: The ratio of weight loss(%) = (W₃ - W₄) / W₃ × 100 [formula] . Lower value of the ratio of weight loss corresponds to higher wood preserving activity. […]"}, "[8]": {"tested_on": "Tyromyces palustris (Ber. et Curt.) Murr., FFPRI 0507", "experiment": "Preserving activity for wood preservatives (weight loss of treated wood)", "settings": "cedar sapwood specimens, 110 ± 10 g/m² preservative applied (0.5% xylene solution per table note), eight weeks at 26 ± 2 °C; lower = higher preserving activity", "description": "as §17, §18, §19, §20, §21, §22, §23, §24, §25, §26, §27, §28, §29, §30, §31"}}}
{"smiles": "CCCCNC(=O)OCC#CI", "note": "[R, I-C≡CCH₂O-CO-NH(CH₂)₃CH₃, reference compound]", "values": [{"measurement": "Average rating value, A₁ : Aspergillus Niger (IFO 6341)", "setting": "[1]", "result": 0.0}, {"measurement": "Average rating value, A₃ : Rhizopus javanicus (IFO 6354)", "setting": "[2]", "result": 2.0}, {"measurement": "Average rating value, A₄ : Aureobasidium pullulans (IFO 6353)", "setting": "[3]", "result": 0.0}, {"measurement": "Average rating value, A₅ : Gliocladium virens (IFO 6355)", "setting": "[4]", "result": 0.0}, {"measurement": "Average rating value, A₂ : Penicillium funiculosum (IFO 6345)", "setting": "[5]", "result": 0.0}, {"measurement": "damage value", "setting": "[6]; D = S₁ / S₀ × 100, untreated 100.0, lower = higher fungicide activity", "result": 13.3}, {"measurement": "Sum (of average rating values A₁ to A₅)", "setting": "[6]; S = A₁ + A₂ + A₃ + A₄ + A₅, untreated 15.0", "result": 2.0}, {"measurement": "Ratio of weight loss (%), C. versicolor", "setting": "[7]", "result": 6.4, "unit": "%"}, {"measurement": "Ratio of weight loss (%), T. palustris", "setting": "[8]", "result": 1.3, "unit": "%"}]}
